Reference: US20090298752A1, “APLIDINE TREATMENT OF CANCERS” (PHARMA MAR, S.A., priority 1999, published 2009)
Entries after “also recorded” stand apart in the source; their conditions may differ.

What was measured:
lewis lung carcinomas = settings: cited from earlier work
FMS = experiment: cDNA expression array in MOLT-4 cells; format: cell-based, human; settings: for quantitative change in FMS expression: MOLT-4, 1 h treatment
Method: (§1) The early changes in gene expression induced by aplidine in MOLT-4 cells were evaluated by using cDNA expression arrays (Atlas Human Cancer, Clontech). MOLT-4 cells were treated for 1 hour with concentrations of aplidine which inhibit the growth by 50% and total RNA was isolated at 0, 1, 6 and 24 hours after drug wash out. Filters were hybridised with equal amount of 32P labelled cDNA. Analysis of the results was carried out using ATLAS IMAGE 1.0 software. Changes in gene expression greater than 2 fold were taken as significant changes in RNA expression and subsequently confirmed by PCR.
as §1, with “In the present study we have evaluated the early” for “The early”, “cells” for “cells were evaluated”, “of aplidien” for “of aplidine”, “isolated t” for “isolated at”, “equal amounts” for “equal amount”, “PCR. […] Whether the down-regulation of flt-1 is involved in the cytotoxic and antitumour effect of aplidine is under investigation at the moment.” for “PCR.”
(§2) The human leukaemia cell line MOLT-4 was used for these experiments MOLT-4 cells were treated for 1 hour with 20 nM of aplidine. Total RNA was extracted at the end of treatment and 6 and 24 hours after recovery in drug-free medium.
(§3) 5 μg of total RNA were retrotanscribed to cDNA in the presence of ^32P dATP. Equal amounts of radioactive probes were hybridised to Atlas Human Cancer Microarrays (Clontech). After washing, filter were exposed and the results analysed using the Atlas Image software. Only a gene expression difference greater than 2 fold between treated and untreated cells were taken into account. RT-PCR and northern analysis have been performed to confirm the changes in gene expression found with the microarrays.

DNA-PK = experiment: cDNA expression array in MOLT-4 cells; format: cell-based, human; settings: MOLT-4, 1 h treatment
Method: as §1
as §1, with “In the present study we have evaluated the early” for “The early”, “cells” for “cells were evaluated”, “of aplidien” for “of aplidine”, “isolated t” for “isolated at”, “equal amounts” for “equal amount”, “PCR. […] Whether the down-regulation of flt-1 is involved in the cytotoxic and antitumour effect of aplidine is under investigation at the moment.” for “PCR.”
as §2, §3

B-RAF = experiment: cDNA expression array in MOLT-4 cells; format: cell-based, human; settings: for quantitative change in B-RAF expression: MOLT-4, 1 h treatment
Method: as §1
as §1, with “In the present study we have evaluated the early” for “The early”, “cells” for “cells were evaluated”, “of aplidien” for “of aplidine”, “isolated t” for “isolated at”, “equal amounts” for “equal amount”, “PCR. […] Whether the down-regulation of flt-1 is involved in the cytotoxic and antitumour effect of aplidine is under investigation at the moment.” for “PCR.”
as §2, §3

ETR = experiment: cDNA expression array in MOLT-4 cells; format: cell-based, human
Method: as §1
as §1, with “In the present study we have evaluated the early” for “The early”, “cells” for “cells were evaluated”, “of aplidien” for “of aplidine”, “isolated t” for “isolated at”, “equal amounts” for “equal amount”, “PCR. […] Whether the down-regulation of flt-1 is involved in the cytotoxic and antitumour effect of aplidine is under investigation at the moment.” for “PCR.”
as §2, §3

PLK-1 = experiment: cDNA expression array in MOLT-4 cells; format: cell-based, human; settings: MOLT-4, 1 h treatment
Method: as §1
as §1, with “In the present study we have evaluated the early” for “The early”, “cells” for “cells were evaluated”, “of aplidien” for “of aplidine”, “isolated t” for “isolated at”, “equal amounts” for “equal amount”, “PCR. […] Whether the down-regulation of flt-1 is involved in the cytotoxic and antitumour effect of aplidine is under investigation at the moment.” for “PCR.”
as §2, §3

ornithine decarboxylase = biological target: T1, ornithine decarboxylase (Homo sapiens, UniProt P11926); settings: all three cell lines; cited from earlier work
T1 construct: endogenous in cells; host or cells: CT-1, CT-2 and HT-29 colon cell lines

HIF-1 = biological target: T2, HIF-1 (Homo sapiens, UniProt P27540+Q16665); experiment: gel retardation assay, transcription factor binding; format: biochemical
T2 construct: endogenous in cells; host or cells: nuclear extracts
Method: Nuclear extracts were incubated with different aplidine concentrations and labelled oligonucleotides for 60 min. Using gel retardation assay the binding of HIF-1 or AP-1 has been monitored.
Nuclear extracts obtained from cells treated with different aplidine concentrations were incubated with labelled oligonucleotides for 60 min. Using gel retardation assay the binding of HIF-1 has been monitored.

MOLT-4 = experiment: apoptosis in leukaemia cell line; format: cell-based, human
[1] = tested on: advanced solid tumours and lymphoma; experiment: Phase I, 1 h weekly infusion x3 q4wk: antitumour activity; format: in vivo, human
Description: Adult patients with advanced disease, PS<3, and appropriate organ function are considered eligible; patients receive aplidine wk×3/q^4 wks. 24 solid tumour patients have been entered: median (m) age 55 y, m ECOG=1, 15/24 patients treated with =>2 treatment cycles. Seven dose levels (DL) from 133 mcg/m^2/wk to 2700 mcg/m^2/wk have been assessed: 102 infusions are evaluable for toxicity (tox). […] At 2700 mcg/m^2/wk (4 pts), 1 had G3 hiperbilirrubinemia that has been considered to be dose limiting and therefore 2700 mcg/m^2/wk DL is being expanded. […] Plasma levels >1 ng/ml 24 hours after infusion are reachable form 1800 mcg/m^2/wk. […] Aplidine appears to be clinically feasible at pharmacologically appropriate dose levels.
Aplidine was administered as a 1 hour weekly×3 every four weeks

MOLT-4 cells = experiment: activity of aplidine on MOLT-4 cells with VEGF added; format: cell-based, human; settings: VEGF 10 ng/ml, 10% FCS, low concentrations of aplidine
P388 leukaemia = settings: mice; cited from earlier work
[2] = stability testing of aplidine and lyophilised dosage form; format: physicochemical; settings: solubilised; heat and light stress testing
Method: In a currently preferred embodiment freeze-drying was performed from a 500 mg/mL solution of aplidine in 40% (v/v) tert-butanol in Water for Injection (WfI) containing 25 mg/mL D-mannitol as bulking agent.

Prostate PC-3 = experiment: sc hollow fibre (HF), prostate tumour cells, rat; format: in vivo; settings: 0.70 mg/kg, 0.7 mg/kg
Method: Different model systems were evaluated to provide the basis for further clinical work. Selective antitumour activities were seen against two histologically different solid tumours: human gastric and prostate carcinomas. Potent in vitro activity to primary gastric tumour specimens or Hs746T gastric tumour cells is evident with IC30 values of 146 and 450 pM, respectively. […] activities were evaluated in nude rodents using sc implanted tumour fragments or hollow fibres (HF) containing tumour cells.
Follow-up studies necessitated using rats for iv infusions. With this variation, a 24 hr iv infusion schedule produced similar activities against HF gastric (20%) and HF prostate (31%) tumour cells. Cytotoxicity was also found using a 5 day iv infusion schedule against HF prostate tumour cells (33%).

[3] = tested on: motor (choline acetyl transferatse positive) neurons in the spinal cord; experiment: fluorescent viability stain with immunocytochemistry; format: cell-based; settings: ethidium homodimer and calcein AM
Description: (§4) The motor neuron sensitivity may help to explain the type II muscle atrophy observed (as predicted) in a small group of patients where the AUC concentration of the drug is elevated due to diminished excretion.

[4] = tested on: brain cells (neurons and astrocytes); experiment: as above; format: cell-based; settings: ethidium homodimer and calcein AM
Description: as §4

[5] = tested on: substance P positive sensory neurones; experiment: as above; format: cell-based; settings: ethidium homodimer and calcein AM
Description: as §4

[6] = MOLT-4, 6 hours after recovery in drug-free medium

T2 sequence (Q16665 whole entry): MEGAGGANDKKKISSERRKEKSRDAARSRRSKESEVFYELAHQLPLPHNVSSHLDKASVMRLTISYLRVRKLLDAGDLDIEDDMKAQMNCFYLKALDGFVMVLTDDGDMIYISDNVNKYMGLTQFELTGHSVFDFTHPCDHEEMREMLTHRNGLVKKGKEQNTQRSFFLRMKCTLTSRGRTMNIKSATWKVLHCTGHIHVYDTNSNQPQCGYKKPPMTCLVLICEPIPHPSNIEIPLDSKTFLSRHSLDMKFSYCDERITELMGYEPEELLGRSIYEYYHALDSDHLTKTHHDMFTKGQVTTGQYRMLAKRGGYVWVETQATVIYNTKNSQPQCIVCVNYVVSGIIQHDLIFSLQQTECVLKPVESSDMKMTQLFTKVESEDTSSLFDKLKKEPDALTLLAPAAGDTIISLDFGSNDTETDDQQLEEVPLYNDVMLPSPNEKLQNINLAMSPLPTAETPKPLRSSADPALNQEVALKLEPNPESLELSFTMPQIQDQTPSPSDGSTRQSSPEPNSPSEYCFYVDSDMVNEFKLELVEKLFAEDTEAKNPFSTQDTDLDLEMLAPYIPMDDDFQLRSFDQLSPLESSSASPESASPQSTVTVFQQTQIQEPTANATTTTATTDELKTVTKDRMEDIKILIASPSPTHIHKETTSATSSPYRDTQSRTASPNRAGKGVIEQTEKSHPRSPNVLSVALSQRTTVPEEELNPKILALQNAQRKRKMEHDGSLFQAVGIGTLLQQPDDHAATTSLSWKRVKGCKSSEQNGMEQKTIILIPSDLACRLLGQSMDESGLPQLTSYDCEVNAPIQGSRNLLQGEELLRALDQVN
T2 sequence (P27540 whole entry): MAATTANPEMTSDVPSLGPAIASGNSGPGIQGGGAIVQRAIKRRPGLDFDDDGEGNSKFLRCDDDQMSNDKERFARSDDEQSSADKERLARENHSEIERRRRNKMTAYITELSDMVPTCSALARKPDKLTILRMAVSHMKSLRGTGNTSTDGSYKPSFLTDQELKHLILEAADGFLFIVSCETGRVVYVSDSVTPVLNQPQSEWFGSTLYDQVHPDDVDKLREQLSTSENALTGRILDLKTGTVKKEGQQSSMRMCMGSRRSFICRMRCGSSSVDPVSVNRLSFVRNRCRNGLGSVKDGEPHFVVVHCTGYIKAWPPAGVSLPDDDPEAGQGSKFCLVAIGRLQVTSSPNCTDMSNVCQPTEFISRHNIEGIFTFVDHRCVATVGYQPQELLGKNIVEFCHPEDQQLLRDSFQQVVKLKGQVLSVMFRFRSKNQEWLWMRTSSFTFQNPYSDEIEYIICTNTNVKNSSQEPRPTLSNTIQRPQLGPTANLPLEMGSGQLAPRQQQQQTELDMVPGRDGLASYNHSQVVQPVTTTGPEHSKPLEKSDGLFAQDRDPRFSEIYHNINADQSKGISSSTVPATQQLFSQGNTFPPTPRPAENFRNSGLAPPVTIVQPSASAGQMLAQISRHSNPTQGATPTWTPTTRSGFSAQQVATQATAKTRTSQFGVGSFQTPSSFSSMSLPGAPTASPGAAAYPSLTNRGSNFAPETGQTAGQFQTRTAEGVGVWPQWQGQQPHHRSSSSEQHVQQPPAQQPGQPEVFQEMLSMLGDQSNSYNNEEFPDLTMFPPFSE
T1 sequence (P11926 whole entry): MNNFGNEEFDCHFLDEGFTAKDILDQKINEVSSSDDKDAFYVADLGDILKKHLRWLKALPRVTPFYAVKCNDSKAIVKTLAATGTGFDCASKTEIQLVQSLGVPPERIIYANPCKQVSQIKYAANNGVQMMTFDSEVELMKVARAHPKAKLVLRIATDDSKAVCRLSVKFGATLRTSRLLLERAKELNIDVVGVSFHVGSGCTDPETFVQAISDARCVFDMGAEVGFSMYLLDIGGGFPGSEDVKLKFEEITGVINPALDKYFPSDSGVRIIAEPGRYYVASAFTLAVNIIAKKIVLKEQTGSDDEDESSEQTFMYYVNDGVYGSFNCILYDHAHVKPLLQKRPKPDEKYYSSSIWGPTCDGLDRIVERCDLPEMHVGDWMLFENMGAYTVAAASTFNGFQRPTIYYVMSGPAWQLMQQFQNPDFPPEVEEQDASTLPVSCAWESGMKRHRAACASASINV

aplidine
activity in SC implanted tumour (lewis lung carcinomas): active | quantitative change in FMS expression (FMS; 6 Hours): +2.7 fold | quantitative change in FMS expression (FMS; 24 Hours): +2.1 fold | levels of Fms, in words (FMS; [6]): increase | quantitative change in DNA-PK expression (DNA-PK; 6 Hours): +3.0 fold | quantitative change in DNA-PK expression (DNA-PK; 24 Hours): +3.8 fold | quantitative change in B-RAF expression (B-RAF; 6 Hours): +2.0 fold | quantitative change in B-RAF expression (B-RAF; 24 Hours): +2.6 fold | levels of B-RAF, in words (B-RAF; [6]): increase | ETR levels, in words (ETR; MOLT-4, 20 nM 1 h, after 6 and 24 hours): returned to normal level | expression of early response gene ETR, in words (ETR; MOLT-4, 20 nM 1 h, at the end of treatment): increased | quantitative change in ETR expression (ETR; MOLT-4, 1 h treatment, 1 Hour): +2.7 fold | quantitative change in PLK-1 expression (PLK-1; 6 Hours): +3.0 fold | quantitative change in PLK-1 expression (PLK-1; 24 Hours): +4.4 fold | ornithine decarboxylase activity (ornithine decarboxylase): decreased ornithine decarboxylase activity | binding of HIF-1 to consensus DNA sequence (HIF-1; nuclear extracts from cells treated with aplidine): does not block the binding | binding of HIF-1 to consensus DNA sequence (HIF-1; nuclear extracts incubated with aplidine, 60 min): does not block the binding; also recorded: did not change the ability | apoptosis (MOLT-4): strong apoptosis | response, Pat #16, gastric adenocarcinoma resistant to FAM ([1]; 1200 μg/m^2 weekly): Slight improvement in the lymph node masses | activity in gastric cancer ([1]; 1 patient at 1200 mcg/m^2): Early hints of activity | response, advanced renal cancer resistant to VBL-IFN ([1]; 2700 mcg/m^2/wk DL): ongoing objective response | response, Pat #23, kidney carcinoma with pulmonary nodules ([1]; after 2 infusions at 2700 μg/m^2 weekly): Partial remission in lung nodules | response, Pat #29, kidney carcinoma ([1]; after 3 infusion): Clinical improvement | effect of added VEGF on activity of aplidine (MOLT-4 cells): slightly reduced the activity of low concentrations of aplidine; also recorded: partially abolish the activity of aplidine | activity against implanted tumour (P388 leukaemia): active | degradation [2]: substantial degradation | Activity (% T/C.) (Prostate PC-3; 24 hr.iv inf.): 31 % T/C | Activity (% T/C.) (Prostate PC-3; 5 day, iv inf): 33 % T/C | toxic concentration [3]: approximately 1 μM | toxic concentration [4]: approximately 1 μM | toxicity at approximately 1 μM [5]: but not substance P positive sensory neurones
